Results on 19 compounds are retold here after patent US10144732B2 (BIOGEN MA INC., priority 2014, dated 2018).

SMILES strings stand for the structures. Values joined by “and” are separate entries in the source; they are usually repeats but may differ in a detail not shown here. Equal entries are not always repeated. Structures can show the parent of a compound that is named as a salt.

One experiment addresses T1, Human ATX protein (Homo sapiens, UniProt Q13822).
T1 construct: made in house
The experiment can be described thus: ATX biochemical assay (FRET, FS-3 substrate). As to conditions: FRET assay, FS-3 2 μM, ATX 1.0 μg/mL, 30 minutes preincubation, 2 hours reaction at room temperature; read-out: IC50. From the text: ATX (Autotaxin) is a 125 KDa glycoprotein with lysophospholipase D (LPLD) activity that generates the bioactive lipid lysophosphatidic acid (LPA) from lysophosphatidylcholine (LPC). The ATX biochemical assay utilizes a FRET (fluorescence resonance energy transfer) technology platform. The fluorescence signal of FRET substrate FS-3 is quenched due to intra-molecular FRET of a fluorophore to a non-fluorescing quencher (Ferguson, C. G., et al., Org Lett. 2006 May 11; 8(10): 2023-2026, which is incorporated by reference in its entirety). ATX catalyzes the hydrolysis of the substrate which separates the dabsyl quencher from the fluorescein reporter, which becomes fluorescent. The reaction is monitored by a SpectraMax M5 (Molecular Devices, Sunnyvale, Calif.) with at excitation wavelength 485 nm and emission wavelength […].
Fatty acid free-BSA (Sigma A8806): 10 mg/mL in H2O, stored at 4° C.
2×ATX assay buffer: 100 mM Tris, 280 mM NaCl, 10 mM KCl, 2 mM CaCl2, 2 mM MgCl2, pH 7.4.
Human ATX protein: expressed and purified in house. Stored at −80° C.
Substrate FS-3 (Echelon, L-2000): 100 μg in 77.74 μL H2O (1 mM stock), stored at −20° C.
384-well flat bottom plates—Corning #3575.
Compound dilution—All compounds were provided at 10 mM in 100% DMSO. In the first well, 2 μL of 10 mM compound was added to 78 μL of DMSO (1:40 dilution). In subsequent wells 3-fold dilution (total 10 dilutions) were performed.
1×ATX assay buffer was made up with a final concentration of 1 mg/mL fatty acid free-BSA using 2×ATX assay buffer, 10 mg/ml fatty acid free-BSA and ddH2O.
[…]. The final concentration of ATX in the reaction as 1.0 μg/mL.
2 μL per well of compounds was transferred to provide the desired concentration. The plate was centrifuged, then incubated at room temperature for 30 minutes on the shaker.
FS-3 was diluted with 1×ATX assay buffer to a concentration of FS-3 of 10 μM (5×). Then, 10 μL was added per well to the assay plate. The final concentration of FS-3 in the reaction was 2 μM. The plate was centrifuged. The plate was kept shaking at room temperature for 2 hours. Because FS-3 substrate is light sensitive, plates were kept covered and protected from light.
Fluorescence was measured using SpectraMax M5 (excitation at 485 nm/emission at 538 nm, top read).
One may read the IC50 as the concentration at which inhibition is half-maximal. For the compound `COC(=O)[C@H]1CC[C@@H](N(C)C(=O)N2CCc3c(C(F)(F)F)nn(Cc4ccc(Cl)cc4F)c3C2)CC1` [Example 3-3, cis-Methyl 4-(1-(4-chloro-2-fluorobenzyl)-N-methyl-3-(trifluoromethyl)-4,5,6,7-tetrahydro-1H-pyrazolo[3,4-c]pyridine-6-carboxamido)cyclohexanecarboxylate], the IC50 is > 0.5 µM and ≤ 10 µM. As to `CN1CC(CC(=O)N2CCc3c(C(F)(F)F)nn(Cc4ccc(Cl)cc4F)c3C2)C[C@H]1C(=O)O` (stereo partly drawn) [Example 10-11, (2S)-4-(2-(1-(4-Chloro-2-fluorobenzyl)-3-(trifluoromethyl)-4,5-dihydro-1H-pyrazolo[3,4-c]pyridin-6(7H)-yl)-2-oxoethyl)-1-methylpyrrolidine-2-carboxylic acid TFA salt], the IC50 is at most 0.1 µM. Still for that read-out and setting: for `O=C(O[C@H]1CC[C@@H](C(=O)O)CC1)N1CCc2c(C(F)(F)F)nn(Cc3ccc(Cl)cc3F)c2C1` [Example 7-9, cis-4-((1-(4-Chloro-2-fluorobenzyl)-3-(trifluoromethyl)-4,5,6,7-tetrahydro-1H-pyrazolo[3,4-c]pyridine-6-carbonyl)oxy)cyclohexanecarboxylic acid] the value was at most 0.1 µM; for `O=C(CC12CCC(C(=O)O)(CC1)CC2)N1CCc2c(C(F)(F)F)nn(Cc3ccc(F)cc3)c2C1` [Example 5-13, 4-(2-(1-(4-Fluorobenzyl)-3-(trifluoromethyl)-4,5-dihydro-1H-pyrazolo[3,4-c]pyridin-6(7H)-yl)-2-oxoethyl)bicyclo[2.2.2]octane-1-carboxylic acid], at most 0.1 µM; for `O=C(O)CC1CN(CC(=O)N2CCc3c(C(F)(F)F)nn(Cc4ccc(F)cc4)c3C2)C1` [Example 13-23, 2-(1-(2-(1-(4-Fluorobenzyl)-3-(trifluoromethyl)-4,5-dihydro-1H-pyrazolo[3,4-c]pyridin-6(7H)-yl)-2-oxoethyl)azetidin-3-yl)acetic acid TFA salt], at most 0.1 µM. On the same count and under the same terms, for `CC(c1ccc(F)cc1)n1nc(C(F)(F)F)c2c1CN(C(=O)C[C@H]1CC[C@@H](C(=O)O)CC1)CC2` (stereo partly drawn) [Example 5-20, cis-4-(2-(1-(1-(4-Fluorophenyl)ethyl)-3-(trifluoromethyl)-4,5-dihydro-1H-pyrazolo[3,4-c]pyridin-6(7H)-yl)-2-oxoethyl)cyclohexanecarboxylic acid] the value was at most 0.1 µM; for `COC(=O)C1CCN(CC(=O)N2CCc3c(C(F)(F)F)nn(Cc4ccc(F)cc4)c3C2)C1` (stereo not shown) [Example 12-7, Methyl 1-(2-(1-(4-fluorobenzyl)-3-(trifluoromethyl)-4,5-dihydro-1H-pyrazolo[3,4-c]pyridin-6(7H)-yl)-2-oxoethyl)pyrrolidine-3-carboxylate], at most 0.1 µM; for `CCOC(=O)C1CCC(CC(=O)N2CCc3c(C(F)(F)F)nn(Cc4ccc(Cl)cc4)c3C2)CC1` (stereo not shown) [Example 1-8, Ethyl 4-(2-(1-(4-chlorobenzyl)-3-(trifluoromethyl)-4,5-dihydro-1H-pyrazolo[3,4-c]pyridin-6(7H)-yl)-2-oxoethyl)cyclohexanecarboxylate], at most 0.1 µM. For the compound `CC(C)N1CCC(CC(=O)N2CCc3c(C(F)(F)F)nn(Cc4ccc(F)cc4)c3C2)C1` (stereo not shown) [Example 10-6, 1-(1-(4-Fluorobenzyl)-3-(trifluoromethyl)-4,5-dihydro-1H-pyrazolo[3,4-c]pyridin-6(7H)-yl)-2-(1-isopropylpyrrolidin-3-yl)ethanone], the IC50 is at most 0.1 µM. As for `O=C(O)C1CCCN(CC(=O)N2CCc3c(C(F)(F)F)nn(Cc4ccc(F)cc4)c3C2)C1` (stereo not shown) [Example 13-7, 1-(2-(1-(4-Fluorobenzyl)-3-(trifluoromethyl)-4,5-dihydro-1H-pyrazolo[3,4-c]pyridin-6(7H)-yl)-2-oxoethyl)piperidine-3-carboxylic acid], the IC50 is at most 0.1 µM. `O=C(O)C12CCC(C(=O)N3CCc4c(C(F)(F)F)nn(Cc5ccc(F)cc5)c4C3)(CC1)CC2` [Example 5-11, 4-(1-(4-Fluorobenzyl)-3-(trifluoromethyl)-4,5,6,7-tetrahydro-1H-pyrazolo[3,4-c]pyridine-6-carbonyl)bicyclo[2.2.2]octane-1-carboxylic acid]: the IC50 is at most 0.1 µM. With `O=C(O)C[C@H]1CC[C@@H](CC(=O)N2CCc3c(C(F)(F)F)nn(Cc4ccc(F)cc4)c3C2)CC1` [Example 5-49, 2-(cis-4-(2-(1-(4-Fluorobenzyl)-3-(trifluoromethyl)-4,5-dihydro1H-pyrazolo[3,4-c]pyridin-6(7H)-yl)-2-oxoethyl)cyclohexyl)acetic acid], the IC50 was at most 0.1 µM. In the case of `O=C(O)CC1CCN(CC(=O)N2CCc3c(C(F)(F)F)nn(Cc4ccc(F)cc4)c3C2)CC1` [Example 13-15, 2-(1-(2-(1-(4-Fluorobenzyl)-3-(trifluoromethyl)-4,5-dihydro-1H-pyrazolo[3,4-c]pyridin-6(7H)-yl)-2-oxoethyl)piperidin-4-yl)acetic acid TFA salt], the IC50 was at most 0.1 µM. As to `O=C(O)CC1CCN(CC(=O)N2CCc3c(C(F)(F)F)nn(Cc4ccc(Cl)cc4F)c3C2)C1` (stereo not shown) [Example 13-24, 2-(1-(2-(1-(4-Chloro-2-fluorobenzyl)-3-(trifluoromethyl)-4,5-dihydro-1H-pyrazolo[3,4-c]pyridin-6(7H)-yl)-2-oxoethyl)pyrrolidin-3-yl)acetic acid TFA salt], the IC50 was at most 0.1 µM. On to `O=C(O)C1CC(CC(=O)N2CCc3c(C(F)(F)F)nn(Cc4ccc(F)cc4)c3C2)C1` (mixture of isomers) [Example 6-9, 3-(2-(1-(4-Fluorobenzyl)-3-(trifluoromethyl)-4,5-dihydro-1H-pyrazolo[3,4-c]pyridin-6(7H)-yl)-2-oxoethyl)cyclobutanecarboxylic acid], for which the IC50 is at most 0.1 µM. On to `O=C(CC1CC2CNCC2C1)N1CCc2c(C(F)(F)F)nn(Cc3ccc(Cl)cc3F)c2C1` (stereo not shown) [Example 9-21, 1-(1-(4-Chloro-2-fluorobenzyl)-3-(trifluoromethyl)-4,5-dihydro-1H-pyrazolo[3,4-c]pyridin-6(7H)-yl)-2-(octahydrocyclopenta[c]pyrrol-5-yl)ethanone TFA salt], for which the IC50 is at most 0.1 µM. As to `CC1(C(=O)O)CC(CC(=O)N2CCc3c(C(F)(F)F)nn(Cc4ccc(Cl)cc4F)c3C2)C1` (stereo not shown) [Example 6-18, 3-(2-(1-(4-Chloro-2-fluorobenzyl)-3-(trifluoromethyl)-4,5-dihydro-1H-pyrazolo[3,4-c]pyridin-6(7H)-yl)-2-oxoethyl)-1-methylcyclobutanecarboxylic acid], the IC50 is at most 0.1 µM.

Take `CCOC(=O)[C@H]1CC[C@H](CC(=O)N2CCc3c(C(F)(F)F)nn(Cc4cncs4)c3C2)CC1` [Example 1-47, trans-Ethyl 4-(2-oxo-2-(1-(thiazol-5-ylmethyl)-3-(trifluoromethyl)-4,5-dihydro-1H-pyrazolo[3,4-c]pyridin-6(7H)-yl)ethyl)cyclohexanecarboxylate]: the half-maximal inhibitory concentration (IC50) was at most 0.1 µM.

The same experiment, now with this note: IC50, FRET assay, FS-3 2 μM, ATX 1.0 μg/mL, 30 minutes preincubation, 2 hours reaction at room temperature.
`O=C(O)C1CC2CCC(C1)N2CC(=O)N1CCc2c(C(F)(F)F)nn(Cc3ccc(Cl)cc3F)c2C1` (stereo not shown) [Example 13-4, 8-(2-(1-(4-Chloro-2-fluorobenzyl)-3-(trifluoromethyl)-4,5-dihydro-1H-pyrazolo[3,4-c]pyridin-6(7H)-yl)-2-oxoethyl)-8-azabicyclo[3.2.1]octane-3-carboxylic acid] returned a half-maximal inhibitory concentration (IC50) of at most 0.1 µM.
